We go through one compound from US20200164005A1, “PHARMACEUTICAL COMPOSITIONS OF A BILE ACID DERIVATIVE AND MICROBIOME AND USES THEREOF” (Intercept Pharmaceuticals, Inc., priority 2017, published 2020).

In one assay the test system is gut microbiome species. The assay is described as follows: Shotgun metagenomics of stool: relative abundance of gut microbiome species after OCA treatment. The conditions noted are these: for OCA Response: abundance change of the bacterial species, subjects treated with 10 mg of OCA. In kind it is in vivo, human. Here is the method:
Twenty-four eligible subjects were enrolled and randomized to 1 of 3 treatment groups (5 mg, 10 mg, or 25 mg) in a treatment ratio of 1:1:1. The study comprised single dose and multiple dose phases. The randomized dose administered in the single dose phase was the subject's dose level for the multiple dose phase. A single dose of OCA (5 mg, 10 mg, or 25 mg) was administered on Day 1. On Day 4, the multiple dose phase began at the same dose level (5 mg, 10 mg, or 25 mg), with subjects receiving OCA once daily for 14 days. The last dose was given to subjects on Day 17. Subjects remained at the inpatient trial site from Day 0 until the morning of Day 30, and returned to the study site for collection of a sample on Days 35, 37, 39, and 44.
Stool specimens for microbiota genome testing were collected up to 2 days prior to submitting them on Day 0, on Day 15, 16, or 17 prior to submitting them on the same day, and up to 2 days prior to submitting them on Day 37. One Day 1, pre-dose blood samples were collected, and serial blood samples were obtained from Day 1 to Day 3 following administration on Day 1 (see Table 1). Multiple dose phase started on Day 4 and lasted through Day 17, during which subjects received once daily doses of OCA (5 mg, 10 mg, or 25 mg) and pre-dose blood samples were drawn (see Table 1).
For microbiome analysis, stool samples were collected on day 0, day 15 or 16, and day 37. FGF19 and C4
The bacterial abundance on species level was generated from MetaPhlAn2 (Segata et al., Nat. Methods 9, 811 (2012)). 341 species were identified from the dataset.
(§1) The adaptors, human reads contamination, and low quality sequences were removed from the raw sequencing data using software kneaddata. Trimmomatic (Bolger et al., Bioinformatics 30, 2114 (2014)) was invoked by kneaddata for removing adaptor sequence, trimming low quality bases, and removing low quality reads. Bowtie (Langmead and Salzberg, Nat. Methods 9, 357 (2012)) was invoked by kneaddata for human reads detection. • Removing sequencing noise: For each sample, if the abundance of one species was smaller than 0.05% of the maximum abundance of all species in the sample, it was considered as noise, and the abundance of this species in the sample was set as 0. • Imputing missing value (i.e. Os): Because log 2 transformation was needed in further analysis, adjustment factor (e) was added to the abundance matrix, where e equals 50% of the minimum non-zero abundance value of all samples. • Removing low abundance species: A species was removed if the relative abundance was lower than 0.1% in >=95% of samples. 128 species was kept for further analysis.
• Species differential abundance analysis: The time effect of OCA treatment was studied on three OCA dose groups separately using Friedman rank test. The dose effect of OCA treatment was studied on three time point separately, and Kruskal-Wallis test was used. • Gene differential abundance analysis: For each of the most varying genes, repeated-measure ANOVA was performed to study the time effect and OCA dose effect on gene abundance change.
An open label, randomized, single dose and multiple dose trial to assess the pharmacokinetics of obeticholic acid (OCA) in 24 healthy male or female subjects aged 18 to 55 years receiving 5, 10 or 25 mg OCA was conducted. Stool specimens for microbiota genome testing were collected by subjects up to 2 days before Day 0 (T0), […] (T1), and Day 37 (T2). […]

The test system of assay [1] is gut microbiome gene families. Description: Gene differential abundance analysis of stool metagenome (HUMAnN2, Uniref50/Uniref90, transposases). It is filed as in vivo, human.
Excerpt: as §1
HUMAnN2 (Abubucker et al., PLoS Comput. Biol. 8, e1002358 (2012)) was used to calculate gene and pathway abundance from metagenomic sequencing data. Uniref50 (UniProt® Consortium, Nucleic Acids Res. 43, D204 (2015)) was used for gene family definition. MetaCyc (Caspi et al., Nucleic Acids Res. 42, D459 (2014)) and KEGG (Kanehisa and Goto, Nucleic Acids Res. 28, 27 (2000); Kanehisa et al., Nucleic Acids Res. 44, D457 (2016)) were used for pathway analysis. • Gene family identification: Initially, 989251 gene families were identified from the dataset by HUMAnN2. Quantile normalization was implemented. For each sample, the RPK values were added up till 90% percentile of all genes (normalization factor, nf). RPK value of each gene in each sample was then divided by the nf of the sample, and multiplied with the mean of nf of all samples. 683270 uncharacterized genes were removed. Genes undetected in over 90% of samples (101994) were removed. 203987 genes were kept. Due to the large number of genes identified, 25% of the most varying genes were selected for further analysis. The most varying genes were defined by the coefficient variation (cv=sd/mean) of log 2 transformed value. • MetaCyc pathway identification: HUMAnN2 identified 567 MetaCyc pathways from the dataset. Quantile normalization was then performed. For each sample, the abundance values were added up till 90% percentile of all pathways (normalization factor, nf). Each pathway abundance in each sample was divided by the nf of the sample, and then multiplied with the mean of nf for all samples. The low abundance pathways (52), which were not detected on over 90% of all samples, were removed. 515 high quality MetaCyc pathways were kept for further analysis. • KEGG pathway identification: HUMAnN2 identified 160 KEGG pathways from the dataset. Quantile normalization was applied, and low abundance pathways were removed. 66 high quality KEGG pathways were kept for further analysis.
• Species differential abundance analysis: The time effect of OCA treatment was studied on three OCA dose groups separately using Friedman rank test. The dose effect of OCA treatment was studied on three time point separately, and Kruskal-Wallis test was used. • Gene differential abundance analysis: For each of the most varying genes, repeated-measure ANOVA was performed to study the time effect and OCA dose effect on gene abundance change. […]

Turning to `CC[C@H]1[C@@H](O)[C@@H]2[C@H](CC[C@]3(C)[C@@H]([C@H](C)CCC(=O)O)CC[C@@H]23)[C@@]2(C)CC[C@@H](O)C[C@@H]12` [OCA, 3α,7α-dihydroxy-6α-ethyl-5β-cholan-24-oic acid], the “time-dependent effect of OCA on Streptococcus thermophilus abundance in fecal microbiota” value with gut microbiome species (10 mg OCA group) is listed as “greatest increase”. In addition, the “abundances of all Gram-negative bacteria following OCA treatment” value in the assay on gut microbiome species (10 mg OCA, Table 15) is “decreased”. In addition, in the assay with gut microbiome species (OCA 5 mg, 10 mg, 25 mg), the “numbers of Lactobacillus casei paracasei and Streptococcus thermophilus upon discontinuation of OCA” value is reported as “decreased”. In addition, in the assay with gut microbiome species (OCA 5 mg, 10 mg, 25 mg, Friedman rank test, p<0.05), the “abundance of Lactobacillus casei paracasei and Streptococcus thermophilus in stool over time” value is “differentially abundant over time in all three OCA dosage groups”. Besides, the figures for the “OCA Response” value in the assay with gut microbiome species (Alistipes_putredinis), in the assay on gut microbiome species (Lactococcus_lactis) and in the assay with gut microbiome species (Subdoligranulum_unclassified) were “Decrease”, “Increase” and “Equivocal”, respectively. Moreover, in the assay on gut microbiome species (day 16), the “low abundance gram positive organisms with the use of OCA” value is “consistent increase”. Besides, the “OCA dose effect on abundance of Bacteroides uniformis and Streptococcus thermophilus” value in the assay with gut microbiome species (day 16 and day 37, Kruskal-Wallis test, p<0.05) is “significantly different among dose groups”. For the same compound, the “low abundance gram positive organisms after OCA was discontinued” value in the assay on gut microbiome species (day 37) is given as “decreased to baseline”. For the same compound, the “abundances of Gram-positive bacterial genera following OCA treatment” value in the assay with gut microbiome species (with two exceptions, 10 mg OCA, Table 15) was “increased abundances”. In addition, the “number of genes with significant time-dependent effects in response to OCA treatment” value in assay [1] (Uniref90 high stringency genomic analysis, eight bacterial species) amounted to 782. The “representation of bacterial transposase genes” value in assay [1] (all three OCA doses) is “robust increase”. In assay [1] (in vivo), the “glycosyl transferase genes in the presence of OCA” value is “significantly increased”. Besides, the “OCA dose effect on gene abundance” value in assay [1] (repeated measure ANOVA, FDR<0.05) is on record as “No OCA dose effect or OCA dose×day interaction was observed”. Also, the “number of genes differentially abundant over time” value in assay [1] (repeated measure ANOVA, FDR<0.05 for time effect) came out at 112.
